Test results from US5985894A, “N-substituted quinolines” (Hoechst Marion Roussel, priority 1991, dated 1999).
pIC50: −log10 of the molar value.

How the values were obtained:
Angiotensin II Receptor = target: T1, Angiotensin II Receptor (Rattus norvegicus, UniProt P25095); test: Test on the Angiotensin II Receptor (displacement of 125I angiotensin II, rat liver membranes); format: binding; conditions: pH 7.4, 25° C., 150 minutes
T1 construct: A fresh membrane preparation obtained from the liver of a rat was used; from tissue; host or cells: rat liver, fresh membrane preparation
T1 sequence (P25095 1-359): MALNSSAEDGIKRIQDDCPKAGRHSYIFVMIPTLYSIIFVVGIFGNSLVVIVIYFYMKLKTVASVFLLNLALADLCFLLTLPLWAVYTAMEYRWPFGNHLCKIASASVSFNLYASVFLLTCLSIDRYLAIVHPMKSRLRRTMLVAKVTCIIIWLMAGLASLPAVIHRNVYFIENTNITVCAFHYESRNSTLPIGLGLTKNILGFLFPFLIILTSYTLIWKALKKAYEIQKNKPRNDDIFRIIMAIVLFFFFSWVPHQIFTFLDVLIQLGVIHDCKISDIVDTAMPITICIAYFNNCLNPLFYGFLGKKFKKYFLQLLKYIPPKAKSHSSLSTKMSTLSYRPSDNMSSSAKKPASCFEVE
Description: 1) Test on the Angiotensin II Receptor
A fresh membrane preparation obtained from the liver of a rat was used and the tissue was ground up in a polytron in a Tris 50 mM pH 7.4 buffer. After being ground up, the tissue was centrifuged 3 times at 30,000 g for 15 minutes with intermediate taking up of the deposits in the Tris pH 7.4 buffer. The last deposits were suspended in a pH 7.4 incubation buffer (Tris 20 mM, NaCl 135 mM, KCl 10 mM, glucose 5 mM, MgCl2 10 mM, phenyl methyl sulfonyl fluoride 0.3 mM, bacitracine 0.1 mM (0.2% bovine albumin serum). 2 ml aliquoted fractions were divided into hemolysis tubes and ^125 I angiotensin II (25,000 DPM/tube) and the product to be studied were added. The product has first tested at 3×10^-5 M in triplicate. When the test product displaced more than 50% of the radioactivity linked specifically to the receptor, it was tested again according to a range of 7 concentrations to determine the concentration that inhibited the radioactivity linked specifically to the receptor by 50%. In this way, the 50% inhibiting concentration was determined.
The non-specific bond was determined by the addition of the product of Example 94 of the European Patent No. 0,253,310 at 10^-5 M (in triplicate). The deposit was incubated at 25° C. for 150 minutes, put back in a water bath at 0° C. for 5 minutes, filtered under vacuum, rinsed with Tris pH 7.4 buffer and the radioactivity was counted in the presence of scintillating Triton. The results were expressed directly as a 50% inhibiting concentration (IC50), that is to say as a concentration of product studied, expressed in nM, necessary to displace 50% of the specific radioactivity fixed on the receptor studied.

[1] = system: angiotensin II on the isolated portal vein; test: Antagonistic activity of angiotensin II on the isolated portal vein; format: cell-based, male Wistar rats; conditions: isolated rat portal vein, angiotensin II 3.10^-8 M, compound 15 minutes before; read-out: IC50 (50% inhibition of the response to angiotensin)
Description: The portal vein was removed from male Wistar rats weighing about 350 g (IFFA Credo France) after cervical dislocation, and put rapidly into a physiological solution (see below) at ambient temperature. A ring of about 1 mm was mounted in a bath with an isolated element containing 20 ml of the following physiological solution (composition in mM: NaCl 118.3-KCl 4.7-MgSO4 1.2-KH2 PO4 1.2-NaHCO3 25-glucose 11.1-CaCl2 2.5). The medium was maintained at 37° C. and oxygenated with a mixture of O2 95%, CO2 5%. The initial pressure imposed was 1 g and the rings were left at rest for 60 to 90 minutes. To avoid spontaneous contractions, verapamil was added to the incubation bath (1.10^-6 M). At the end of the rest period, angiotensin II (Ciba hypertensis) 3.10^-8 M were added to the incubation bath and left in contact with the preparation for one minute. This operation was repeated every 30 minutes with the tissue being washed 3 or 4 times between two stimulations with angiotensin. The compound to be studied was introduced into the bath 15 minutes before a new stimulation with angiotensin. As increasing concentrations of the molecule were used, an IC50 (concentration that produced a 50% inhibition of the response to angiotensin) was calculated, expressed in nanomoles.

angiotensin II = test: Test for antagonistic activity of angiotensin II on a demedullated rat; format: in vivo, Male Sprague-Dawley rats; conditions: iv, 5 min, pressure effect of angiotensin II 0.75 micrograms/kg, compound injected (jugular vein) 5 minutes before, read-out: 50% inhibiting dose
Description: 3) Test for Antagonistic Activity of Angiotensin II on a Demedullated Rat
Male Sprague-Dawley rats weighing 250 to 350 g were anaesthetized by an intraperitoneal injection of sodium pentobarbital (60 mg/kg). The diastolic arterial pressure was recorded using a heparinated catheter (PE50) introduced into the left carotid of the animal, and connected to a pressure calculator (Gould, Pressure Processor) by a Gould pressure sensor. A catheter was introduced into the right jugular vein of the animal for the injection of the molecules to be studied. The animal was placed under assisted respiration and a bilateral section of the pneumogastric nerves was carried out. The rat was then demedullated. After a sufficient period of stabilization, the study of the antagonism of the compounds vis-a-vis angiotensin II (Ciba Hypertensin) was carried out in the following manner.
1--Three consecutive injections of angiotensin II (0.75 micrograms/kg) spaced out over 15 minutes allowed a reproducible and stable pressure response to be obtained.
2--While keeping a time period of 15 minutes for the administration of angiotensin II, the molecules to be studied were injected 5 minutes before angiotensin II.
The pressure effects of angiotensin II in the presence of the antagonist were expressed as a percentage of the pressure effects of angiotensin II administered on its own. The 50% inhibiting dose of the effect studied was determined. Each animal was considered as its own control and the results are in the following Table

[2] = Passive avoidance test (scopolamine amnesia); format: in vivo, Male mice (CD1 Charles River); conditions: s.c., 24 hours after treatment

SMILES	pIC50 (Angiotensin II Receptor)	pIC50 [1]	ED50 (angiotensin II) [mg/kg]	PERCENTAGE OF INCREASE IN THE LATENCY TIME RELATIVE TO THE CONTROLS ([2]; dose 0.1 μg/kg) [%]	PERCENTAGE OF INCREASE IN THE LATENCY TIME RELATIVE TO THE CONTROLS ([2]; dose 0.25 μg/kg) [%]	PERCENTAGE OF INCREASE IN THE LATENCY TIME RELATIVE TO THE CONTROLS ([2]; dose 1 μg/kg) [%]	PERCENTAGE OF INCREASE IN THE LATENCY TIME RELATIVE TO THE CONTROLS ([2]; dose 2.5 μg/kg) [%]	PERCENTAGE OF INCREASE IN THE LATENCY TIME RELATIVE TO THE CONTROLS ([2]; dose 10 μg/kg) [%]	PERCENTAGE OF INCREASE IN THE LATENCY TIME RELATIVE TO THE CONTROLS ([2]; dose 25 μg/kg) [%]	PERCENTAGE OF INCREASE IN THE LATENCY TIME RELATIVE TO THE CONTROLS ([2]; dose 100 μg/kg) [%]	PERCENTAGE OF INCREASE IN THE LATENCY TIME RELATIVE TO THE CONTROLS ([2]; dose 250 μg/kg) [%]	PERCENTAGE OF INCREASE IN THE LATENCY TIME RELATIVE TO THE CONTROLS ([2]; dose 1000 μg/kg) [%]
CCCCc1cn(Cc2ccc(-c3ccccc3C(=O)O)cc2)c2ccccc2c1=O [Example 4, 4'-[(3-butyl-1,4-dihydro-4-oxo-1-quinolinyl)-methyl](1,1'-biphenyl)-2-carboxylic acid]	6.74	7.02	7.55	–	–	–	–	–	–	–	–	–
CCCCc1cn(Cc2ccc(-c3ccccc3C(=O)O)cc2)c2cc(CC(=O)O)ccc2c1=O [Example 50]	–	–	0.61	20	31	84	93	190	225	149	–	–
CCCCc1cn(Cc2ccc(-c3ccccc3C(=O)O)cc2)c2cc(CCC(=O)O)ccc2c1=O [Example 38]	–	–	–	1	–	57	–	118	132	131	101	158
CCCCc1cn(Cc2ccc(-c3ccccc3C(=O)O)cc2)c2c(C(=O)O)cccc2c1=O [Example 30]	7.27	–	0.21	–	–	23	–	37	65	91	144	126
CCCCc1cn(Cc2ccc(-c3ccccc3C(=O)O)cc2)c2ccccc2c1=S [Example 6]	6.40	7.18	6.65	–	–	–	–	–	–	–	–	–
CCCCc1cn(Cc2ccccc2CC(=O)O)c2ccccc2c1=O [Example 56]	–	–	–	–	–	–	–	24	49	98	105	122
CCCCc1cn(Cc2ccc(-c3ccccc3C(=O)O)cc2)c2ccc(C)cc2c1=O [Example 58]	–	–	–	3	–	29	–	112	110	129	–	–
CCCCc1cn(Cc2ccc(-c3ccccc3C(=O)O)cc2)c2c(c1=O)CCCC2 [Example 22, 4'-[(3-butyl-1,4,5,6,7,8-hexahydro-4-oxo-1-quinolinyl)-methyl](1,1'-biphenyl)-2-carboxylic acid]	7.05	–	1	–	–	–	–	8	26	66	128	127

More lines, main results first:

pIC50 (Angiotensin II Receptor)	pIC50 [1]	SMILES	ED50 (angiotensin II) [mg/kg]	PERCENTAGE OF INCREASE IN THE LATENCY TIME RELATIVE TO THE CONTROLS ([2]; dose 0.1 μg/kg) [%]	PERCENTAGE OF INCREASE IN THE LATENCY TIME RELATIVE TO THE CONTROLS ([2]; dose 0.25 μg/kg) [%]	PERCENTAGE OF INCREASE IN THE LATENCY TIME RELATIVE TO THE CONTROLS ([2]; dose 1 μg/kg) [%]	PERCENTAGE OF INCREASE IN THE LATENCY TIME RELATIVE TO THE CONTROLS ([2]; dose 2.5 μg/kg) [%]	PERCENTAGE OF INCREASE IN THE LATENCY TIME RELATIVE TO THE CONTROLS ([2]; dose 10 μg/kg) [%]	PERCENTAGE OF INCREASE IN THE LATENCY TIME RELATIVE TO THE CONTROLS ([2]; dose 25 μg/kg) [%]	PERCENTAGE OF INCREASE IN THE LATENCY TIME RELATIVE TO THE CONTROLS ([2]; dose 100 μg/kg) [%]	PERCENTAGE OF INCREASE IN THE LATENCY TIME RELATIVE TO THE CONTROLS ([2]; dose 250 μg/kg) [%]	PERCENTAGE OF INCREASE IN THE LATENCY TIME RELATIVE TO THE CONTROLS ([2]; dose 1000 μg/kg) [%]
7.04	7.51	CCCCc1cn(Cc2ccc(-c3ccccc3C(=O)O)cc2)c2cc(C(=O)O)ccc2c1=O [Example 10, 3-butyl-1-[[2'-carboxy-(1,1'-biphenyl)-4-yl]-methyl]-1,4-dihydro-4-oxo-7-quinoline carboxylic acid]	1.27	–	–	–	–	–	–	–	–	–
7.13	–	CCCCc1cn(Cc2ccc(-c3ccccc3C(=O)O)cc2)c2c(Br)cccc2c1=O [Example 18, 4'-[(3-butyl-1,4-dihydro-8-bromo-4-oxo-1-quinolinyl)-methyl](1,1'-biphenyl)2-carboxylic acid]	3.9	–	–	–	–	–	–	–	–	–
8.06	–	CCCCc1cn(Cc2ccc(-c3ccccc3-c3nn[nH]n3)cc2)c2cc(C(=O)N3CCCC3)ccc2c1=O [Example 52]	0.23	–	–	–	–	–	–	–	–	–
7.10	7.50	CCCCc1cn(Cc2ccc(-c3ccccc3C(=O)O)cc2)c2cc(C(=O)N3CCCC3)ccc2c1=O [Example 16]	1.2	–	–	–	–	–	–	–	–	–
–	7.31	CCCCc1cn(Cc2ccc(-c3ccccc3C(=O)O)cc2)c2cc(CO)ccc2c1=O [Example 12]	3.76	–	–	–	–	–	–	–	–	–
